Experimental data reported in ChEMBL document CHEMBL4699496, “Exploring efficacy of natural-derived acetylphenol scaffold inhibitors for α-glucosidase: Synthesis, in vitro and in vivo biochemical studies” (Bioorg Med Chem Lett, 2020).
Calls of active or inactive are those of the source. The rule behind the calls is not given here.

Tests used:
[1] = Inhibition of alpha-glucosidase (unknown origin); parameters: species or system Homo sapiens
Homo sapiens [2] = species on record: Homo sapiens; assay: Binding affinity to alpha-glucosidase (unknown origin) assessed as fluorescence quenching at 0.16 to 1.83 uM by fluorescence spectral analysis; settings: dose microM 0.16-1.83
Homo sapiens [3] = species on record: Homo sapiens; assay: Binding affinity to alpha-glucosidase (unknown origin) assessed as change in gibbs free energy at 298 K by Van't Hoff equation analysis
Homo sapiens [4] = species on record: Homo sapiens; assay: Binding affinity to alpha-glucosidase (unknown origin) assessed as binding constant at 298 K
Rattus norvegicus [5] = species on record: Rattus norvegicus; assay: Inhibition of alpha-glucosidase in rat everted intestinal sleeves assessed as reduction in glucose concentration within intestinal sleeves at 0.173 mM measured for 5 to 90 mins; format: tissue-based; settings: Intestine, time min 5-90
Homo sapiens [6] = species on record: Homo sapiens; assay: Binding affinity to alpha-glucosidase (unknown origin) assessed as hydrogen bonding interactions by measuring change in entropy at 304 K by Van't Hoff equation analysis
Homo sapiens [7] = species on record: Homo sapiens; assay: Non-competitive inhibition of alpha-glucosidase (unknown origin) assessed as decrease in Vmax with constant Km at 0.0 to 0.92 uM using p-NPG as substrate by Lineweaver-Burk plot analysis; settings: dose microM 0.0-0.92
[8] = Binding affinity to alpha-glcosidase (unknown origin) using p-NPG as substrate; parameters: species or system Homo sapiens
Homo sapiens [9] = species on record: Homo sapiens; assay: Binding affinity to alpha-glucosidase (unknown origin) assessed as Stern-Volmer quenching constant at 298 K
Homo sapiens [10] = species on record: Homo sapiens; assay: Binding affinity to alpha-glucosidase (unknown origin) assessed as Stern-Volmer quenching constant at 304 K
Homo sapiens [11] = species on record: Homo sapiens; assay: Binding affinity to alpha-glucosidase (unknown origin) assessed as Stern-Volmer quenching constant at 310 K
Homo sapiens [12] = species on record: Homo sapiens; assay: Binding affinity to alpha-glucosidase (unknown origin) assessed as binding constant at 304 K
Homo sapiens [13] = species on record: Homo sapiens; assay: Binding affinity to alpha-glucosidase (unknown origin) assessed as binding constant at 310 K
Homo sapiens [14] = species on record: Homo sapiens; assay: Binding affinity to alpha-glucosidase (unknown origin) assessed as hydrophobic interactions by measuring change in enthalpy at 304 K by Van't Hoff equation analysis
Homo sapiens [15] = species on record: Homo sapiens; assay: Binding affinity to alpha-glucosidase (unknown origin) assessed as change in gibbs free energy at 304 K by Van't Hoff equation analysis
Homo sapiens [16] = species on record: Homo sapiens; assay: Binding affinity to alpha-glucosidase (unknown origin) assessed as change in gibbs free energy at 310 K by Van't Hoff equation analysis
Homo sapiens [17] = species on record: Homo sapiens; assay: Binding affinity to alpha-glucosidase (unknown origin) assessed as change in the microenvironment of tyrosine residue by measuring red shift at 0.16 to 1.66 uM by fluorescence based Synchronous fluorescence spectroscopy; settings: dose microM 0.16-1.66
Homo sapiens [18] = species on record: Homo sapiens; assay: Binding affinity to alpha-glucosidase (unknown origin) assessed as change in the microenvironment of tryptophan residue by measuring blue shift at 0.16 to 1.66 uM by fluorescence based Synchronous fluorescence spectroscopy; settings: dose microM 0.16-1.66
Mus musculus [19] = species on record: Mus musculus; assay: Hypoglycemic activity in Kunming mouse assessed as reduction in maltose-induced postprandial blood glucose level measured after 15 to 120 mins by maltose loading test; format: functional, organism-based; settings: time min 15-120
Mus musculus [20] = species on record: Mus musculus; assay: Hypoglycemic activity in Kunming mouse assessed as reduction in maltose-induced blood glucose AUC (0 to 120 mins) by maltose loading test; format: functional, organism-based; settings: time min 0-120
Rattus norvegicus [21] = species on record: Rattus norvegicus; assay: Inhibition of alpha-glucosidase in rat everted intestinal sleeves assessed as reduction in glucose concentration outside of the intestinal sleeves at 0.173 mM measured after 5 to 90 mins; format: tissue-based; settings: Intestine, time min 5-90
Homo sapiens [22] = species on record: Homo sapiens; assay: Binding affinity to alpha-glucosidase (unknown origin) assessed as enzyme complexation with compound by measuring mean height of enzyme at 2.5 uM by atomic force microscopy (reference value: 0.87 nm)
Homo sapiens [23] = species on record: Homo sapiens; assay: Binding affinity to alpha-glucosidase (unknown origin) assessed as enzyme complexation with compound at 2.5 uM by measuring mean width of enzyme by atomic force microscopy (reference value: 28.35 nm)
Homo sapiens [24] = species on record: Homo sapiens; assay: Binding affinity to alpha-glucosidase (unknown origin) assessed as decrease in fluorescence intensity of Tyr residue without shift in maximum emission wavelength at 0.16 to 1.66 uM by fluorescence based Synchronous fluorescence spectroscopy; settings: dose microM 0.16-1.66
Homo sapiens [25] = species on record: Homo sapiens; assay: Binding affinity to alpha-glucosidase (unknown origin) assessed as quenching constant at 304 K
Homo sapiens [26] = species on record: Homo sapiens; assay: Binding affinity to alpha-glucosidase (unknown origin) assessed as quenching constant at 310 K
Homo sapiens [27] = species on record: Homo sapiens; assay: Binding affinity to alpha-glucosidase (unknown origin) assessed as quenching constant at 298 K
Rattus norvegicus [28] = species on record: Rattus norvegicus; assay: Inhibition of alpha-glucosidase in rat everted intestinal sleeves assessed as reduction in blood glucose AUC (0-90) within intestinal sleeves at 0.173 mM; format: tissue-based; settings: Intestine, time min 0-90
Rattus norvegicus [29] = species on record: Rattus norvegicus; assay: Inhibition of alpha-glucosidase in rat everted intestinal sleeves assessed as reduction in blood glucose AUC (0-90) outside of the intestinal sleeves at 0.173 mM; format: tissue-based; settings: Intestine, time min 0-90
Homo sapiens [30] = species on record: Homo sapiens; assay: Binding affinity to alpha-glucosidase (unknown origin) assessed as decrease in fluorescence intensity at 0.16-1.66 uM by fluorescence based Synchronous fluorescence spectroscopy; settings: dose microM 0.16-1.66
Homo sapiens [31] = species on record: Homo sapiens; assay: Binding affinity to alpha-glucosidase (unknown origin) assessed as destabilization of enzyme conformation by measuring induction of protein aggregation at 2.5 uM by atomic force microscopy

COc1ccc(C(=O)Oc2c(C)cc(C(=O)C(C)C)c(O)c2Br)cc1
IC50 ([1]; read-out: IC50): 27.6 µM

Cc1cc(C(=O)C(C)C)c(O)cc1OC(=O)c1ccc(Cl)cc1
IC50 ([1]; read-out: IC50): 10.9 µM

Cc1cc(C(=O)C(C)C)c(O)cc1OC(=O)c1ccc(Br)cc1
IC50 ([1]; read-out: IC50): 26 µM

CCCCC(=O)c1cc(C)c(O)cc1O
IC50 [1]: Not Active

Cc1cc(C(=O)C(C)C)c(O)c(Br)c1OC(=O)c1ccc(Cl)cc1
IC50 ([1]; read-out: IC50): 24.9 µM

CCCCC(=O)c1ccc(O)cc1O
IC50 [1]: Not Active

CCCCCC(=O)c1ccc(O)cc1O
IC50 ([1]; read-out: IC50): 107 µM

CC(C)C(=O)c1cc(Br)c(OC(=O)CCl)cc1O
IC50 ([1]; read-out: IC50): 143 µM

CCC(=O)c1ccc(O)cc1O
IC50 [1]: Not Active

CC(C)C(=O)c1ccc(OC(=O)CBr)cc1O
IC50 ([1]; read-out: IC50): 35.8 µM

CCCCC(=O)c1cc(C)c(OC(=O)CI)cc1O
IC50 ([1]; read-out: IC50): 5.58 µM

Cc1cc(C(=O)C(C)C)c(O)cc1OC(=O)C(C)(C)C
IC50 ([1]; read-out: IC50): 16 µM

CCCCCCCC(=O)c1ccc(O)cc1O
IC50 ([1]; read-out: IC50): 74.6 µM

CC(=O)Oc1c(C)cc(C(=O)C(C)C)c(O)c1Br
IC50 ([1]; read-out: IC50): 121 µM

CC(=O)Oc1cc(O)c(C(=O)C(C)C)cc1Br
IC50 [1]: Not Active

CC(C)C(=O)c1cc(Br)c(OC(=O)CBr)cc1O
IC50 ([1]; read-out: IC50): 15 µM

CCCC(=O)Oc1cc(O)c(C(=O)C(C)C)cc1C
IC50 ([1]; read-out: IC50): 43.2 µM

CCCCCCCCCC(=O)Oc1cc(O)c(C(=O)C(C)C)cc1C
IC50 ([1]; read-out: IC50): 8.45 µM

Cc1cc(C(=O)C(C)C)c(O)cc1OC(=O)CCl
IC50 ([1]; read-out: IC50): 140 µM

CCC(=O)c1cc(C)c(OC(=O)CI)cc1O
IC50 ([1]; read-out: IC50): 6.22 µM

CC(C)C(=O)c1ccc(OC(=O)C(C)(C)C)cc1O
IC50 ([1]; read-out: IC50): 33.4 µM

Cc1cc(C(=O)C(C)C)c(O)cc1OC(=O)c1ccccc1
IC50 ([1]; read-out: IC50): 14.6 µM

CC(C)C(=O)c1ccc(OC(=O)CCl)cc1O
IC50 [1]: Not Active

CCC(=O)c1cc(C)c(O)cc1O
IC50 [1]: Not Active

Cc1cc(C(=O)C(C)C)c(O)c(Br)c1OC(=O)CBr
IC50 ([1]; read-out: IC50): 11.9 µM

CCC(=O)c1ccc(OC(=O)CI)cc1O
IC50 [1]: Not Active

Cc1cc(C(=O)C(C)C)c(O)c(Br)c1OC(=O)CI
Activity (Homo sapiens [2]): Active
deltaG (Homo sapiens [3]): -8.73 kcal/mol
Ka (Homo sapiens [4]): 1.56 10^4L/mol
inhibition (Rattus norvegicus [5]): Active
deltaS (Homo sapiens [6]): 57 J/mol/K
IC50 ([1]; read-out: IC50): 0.57 µM
inhibition (Homo sapiens [7]): Active
Ki [8]: 0.65 µM
KSV (Homo sapiens [9]): 2.98 10^4L/mol
KSV (Homo sapiens [10]): 2.59 10^4L/mol
KSV (Homo sapiens [11]): 2.24 10^4L/mol
Ka (Homo sapiens [12]): 1.45 10^4L/mol
Ka (Homo sapiens [13]): 1.36 10^4L/mol
deltaH (Homo sapiens [14]): -4.67 kcal/mol
deltaG (Homo sapiens [15]): -8.81 kcal/mol
deltaG (Homo sapiens [16]): -8.89 kcal/mol
Activity (Homo sapiens [17]): Active
Activity (Homo sapiens [18]): Active
Activity (Mus musculus [19]): Dose-dependent effect
Activity (Mus musculus [20]): Active
inhibition (Rattus norvegicus [21]): Active
Activity (Homo sapiens [22]): 3.97 nm
Activity (Homo sapiens [23]): 29.6 nm
Activity (Homo sapiens [24]): inactive
Kq (Homo sapiens [25]): 2.59 10^12L/mol/s
Kq (Homo sapiens [26]): 2.24 10^12L/mol/s
Kq (Homo sapiens [27]): 2.98 10^12L/mol/s
inhibition (Rattus norvegicus [28]): Active
inhibition (Rattus norvegicus [29]): Active
Activity (Homo sapiens [30]): Active
Activity (Homo sapiens [31]): Active

Cc1cc(C(=O)C(C)C)c(O)cc1OC(=O)CI
IC50 ([1]; read-out: IC50): 4.27 µM

Cc1cc(C(=O)C(C)C)c(O)c(Br)c1OC(=O)CCl
IC50 ([1]; read-out: IC50): 30.9 µM

CCC(=O)Oc1cc(O)c(C(=O)C(C)C)cc1C
IC50 [1]: Not Active

CCCCCCC(=O)c1ccc(O)cc1O
IC50 ([1]; read-out: IC50): 81.9 µM

CC(=O)Oc1ccc(C(=O)C(C)C)c(O)c1
IC50 [1]: Not Active

Cc1cc(C(=O)C(C)C)c(O)cc1OC(=O)c1ccccc1Cl
IC50 ([1]; read-out: IC50): 27.4 µM

CCCCCCC(=O)Oc1cc(O)c(C(=O)C(C)C)cc1C
IC50 ([1]; read-out: IC50): 5.93 µM

CCCCCC(=O)c1ccc(OC(=O)CI)cc1O
IC50 ([1]; read-out: IC50): 8.97 µM

CC(C)C(=O)Oc1ccc(C(=O)C(C)C)c(O)c1
IC50 ([1]; read-out: IC50): 72.5 µM

Cc1cc(C(=O)C(C)C)c(O)c(Br)c1OC(=O)C(C)(C)C
IC50 ([1]; read-out: IC50): 1.86 µM

CC(C)C(=O)c1ccc(OC(=O)CI)cc1O
IC50 ([1]; read-out: IC50): 14.4 µM

Cc1ccc(C(=O)Oc2c(C)cc(C(=O)C(C)C)c(O)c2Br)cc1
IC50 ([1]; read-out: IC50): 25.2 µM

Cc1cc(C(=O)C(C)C)c(O)cc1OC(=O)Cc1ccccc1
IC50 ([1]; read-out: IC50): 25.4 µM

CCCCCC(=O)c1cc(C)c(OC(=O)CI)cc1O
IC50 ([1]; read-out: IC50): 3.9 µM

Cc1cc(C(=O)C(C)C)c(O)cc1O
IC50 ([1]; read-out: IC50): 23.7 µM

CCCCCC(=O)c1cc(C)c(O)cc1O
IC50 ([1]; read-out: IC50): 66.5 µM

O=c1c(-c2ccc(O)cc2)coc2cc(O)cc(O)c12 [GENISTEIN]
IC50 ([1]; read-out: IC50): 7.21 µM

Cc1cc(C(=O)C(C)C)c(O)cc1OC(=O)c1cccc(Cl)c1
IC50 ([1]; read-out: IC50): 28.1 µM

Cc1cc(C(=O)C(C)C)c(O)c(Br)c1OC(=O)c1ccc(I)cc1
IC50 ([1]; read-out: IC50): 25.4 µM

Cc1cc(C(=O)C(C)C)c(O)c(Br)c1O
IC50 ([1]; read-out: IC50): 21 µM

CC(=O)Oc1cc(O)c(C(=O)C(C)C)cc1C
IC50 [1]: Not Active

CCCCC(=O)c1ccc(OC(=O)CI)cc1O
IC50 [1]: Not Active

CCCCC(=O)Oc1cc(O)c(C(=O)C(C)C)cc1C
IC50 ([1]; read-out: IC50): 24.7 µM

Cc1cc(C(=O)C(C)C)c(O)c(Br)c1OC(=O)c1ccc(F)cc1
IC50 ([1]; read-out: IC50): 15.7 µM

CCCCCCC(=O)c1cc(C)c(O)cc1O
IC50 ([1]; read-out: IC50): 40.9 µM

Cc1cc(C(=O)C(C)C)c(O)cc1OC(=O)CBr
IC50 ([1]; read-out: IC50): 14.9 µM

CCCCCCC(=O)c1cc(C)c(OC(=O)CI)cc1O
IC50 ([1]; read-out: IC50): 1.77 µM

CC(C)C(=O)c1cc(Br)c(O)cc1O
IC50 ([1]; read-out: IC50): 29 µM

Cc1cc(C(=O)C(C)C)c(O)c(Br)c1OC(=O)c1ccc([N+](=O)[O-])cc1
IC50 ([1]; read-out: IC50): 20.6 µM

CCCCCCCC(=O)c1cc(C)c(O)cc1O
IC50 ([1]; read-out: IC50): 35.6 µM

CC(C)C(=O)c1cc(Br)c(OC(=O)CI)cc1O
IC50 ([1]; read-out: IC50): 11.3 µM
